Drawing on BindingDB's records for doi:10.1016/j.bmc.2004.08.050 (Yamanouchi Pharmaceutical, 2004), this text covers IC50 for 16 compounds.

Holding throughout (assay): HIV-1 RT Assay
Test [1] has as its target T1, Gag-Pol polyprotein [588-1127,Y768C]/[588-1147,Y768C] (Human immunodeficiency virus 1, UniProt P04585, Y768C).
T1 construct: 588-1127; 588-1147

Test [2] concerns the target T2, Gag-Pol polyprotein [588-1027,K690N]/[588-1147,K690N] (Human immunodeficiency virus 1, UniProt P04585, K690N).
T2 construct: 588-1027; 588-1147

Test [3] addresses T3, Gag-Pol polyprotein [588-1027]/[588-1147] (Human immunodeficiency virus 1, UniProt P04585).
T3 construct: 588-1027; 588-1147

The IC50 is the concentration that gives 50% inhibition. Low values mean higher potency, high ones lower potency. As to `COC(=O)c1c(C(C)C)s/c(=N\S(=O)(=O)c2cccc([N+](=O)[O-])c2)n1C` [Methyl 5-isopropyl-3-methyl-2-{[(3-nitrophenyl)-sulfonyl]imino}-2,3-dihydro-1,3-thiazole-4-carboxylate], the IC50 is greater than 25 µM in test [1], greater than 50 µM in test [2] and greater than 50 µM in test [3].

Take `Cc1cs/c(=N\S(=O)(=O)c2cccc([N+](=O)[O-])c2)n1C` [N-[(2Z)-3,4-dimethyl-2,3-dihydro-1,3-thiazol-2-ylidene]-3-nitrobenzene-1-sulfonamide]: the IC50 in test [1] (pH 8.4, 37 °C) was greater than 50 µM; in test [2] (pH 8.4, 37 °C) it was greater than 50 µM; in test [3] (pH 8.4, 37 °C), greater than 50 µM.

Turning to `C=Cc1s/c(=N\S(=O)(=O)c2cccc([N+](=O)[O-])c2)n(C)c1C` [N-(3,4-Dimethyl-5-vinyl-1,3-thiazol-2(3H)-ylidene)-3-nitrobenzenesulfonamide], the IC50 turned out to be 9.6 µM in test [1], 6.2 µM in test [2] and 0.15 µM in test [3].

As to `CC(C)c1s/c(=N\S(=O)(=O)c2cccc([N+](=O)[O-])c2)n(C)c1Cl` [thiazolidenebenzenesulfonamide deriv. 17k], the IC50 in test [1] stood at 0.13 µM; in test [2] it was 6.9 µM; in test [3] it was 0.077 µM.

As to `CC(C)c1cn(C)/c(=N/S(=O)(=O)c2cccc([N+](=O)[O-])c2)s1` [N-[(2Z)-3-methyl-5-(propan-2-yl)-2,3-dihydro-1,3-thiazol-2-ylidene]-3-nitrobenzene-1-sulfonamide], the IC50 in test [1] is 0.7 µM; in test [2], greater than 50 µM; in test [3] it was 0.6 µM.

In the case of `Cc1c(C(C)(C)C)s/c(=N\S(=O)(=O)c2cccc([N+](=O)[O-])c2)n1C` [3-substituted thiazolidene deriv. 17a], the IC50 in test [1] (pH 8.4, 37 °C) was found to be 0.066 µM; in test [2] (pH 8.4, 37 °C) it was 13 µM; in test [3] (pH 8.4, 37 °C), 0.27 µM.

Turning to `Cc1c(C(C)C)s/c(=N\S(=O)(=O)c2cccc([N+](=O)[O-])c2)n1C` [N-(3,4-Dimethyl-5-isopropyl-1,3-thiazol-2(3H)-ylidene)-3-nitrobenzenesulfonamide], the IC50 is 0.071 µM in test [1] (pH 8.4, 37 °C); 20 µM in test [2] (pH 8.4, 37 °C); 0.34 µM in test [3] (pH 8.4, 37 °C).

As for `CCn1c(C)c(C(C)(C)C)s/c1=N\S(=O)(=O)c1cccc([N+](=O)[O-])c1` [N-[(2Z)-5-tert-butyl-3-ethyl-4-methyl-2,3-dihydro-1,3-thiazol-2-ylidene]-3-nitrobenzene-1-sulfonamide], the IC50 in test [1] is 0.12 µM; in test [2] it was greater than 50 µM; in test [3], 6 µM.

For `CC(C)c1s/c(=N\S(=O)(=O)c2cccc([N+](=O)[O-])c2)n(C)c1C#N` [N-(4-Cyano-5-isopropyl-3-methyl-1,3-thiazol-2(3H)-ylidene)-3-nitrobenzenesulfonamide], the IC50 in test [1] is 0.64 µM; in test [2], greater than 50 µM; in test [3], 0.62 µM.

Regarding `CC(C)c1s/c(=N\S(=O)(=O)c2cccc([N+](=O)[O-])c2)n(C)c1C(F)(F)F` [N-[(2Z)-3-methyl-5-(propan-2-yl)-4-(trifluoromethyl)-2,3-dihydro-1,3-thiazol-2-ylidene]-3-nitrobenzene-1-sulfonamide], the values for the IC50 in test [1], in test [2] and in test [3] were 0.26 µM, 42 µM and 0.6 µM, respectively.

In the case of `CC(C)Cc1c(C(C)C)s/c(=N\S(=O)(=O)c2cccc([N+](=O)[O-])c2)n1C` [N-(4-Isobutyl-5-isopropyl-3-methyl-1,3-thiazol-2(3H)-ylidene)-3-nitrobenzenesulfonamide], the IC50 is greater than 25 µM in test [1], greater than 50 µM in test [2] and greater than 50 µM in test [3].

Turning to `Cc1s/c(=N\S(=O)(=O)c2cccc([N+](=O)[O-])c2)n(C)c1C` [3-nitro-N-[(2Z)-3,4,5-trimethyl-2,3-dihydro-1,3-thiazol-2-ylidene]benzene-1-sulfonamide], the IC50 in test [1] (pH 8.4, 37 °C) is 33 µM; in test [2] (pH 8.4, 37 °C) it was greater than 50 µM; in test [3] (pH 8.4, 37 °C), 0.97 µM.

Take `CCc1s/c(=N\S(=O)(=O)c2cccc([N+](=O)[O-])c2)n(C)c1C` [N-[(2Z)-5-ethyl-3,4-dimethyl-2,3-dihydro-1,3-thiazol-2-ylidene]-3-nitrobenzene-1-sulfonamide]: the IC50 in test [1] (pH 8.4, 37 °C) was found to be 0.47 µM; in test [2] (pH 8.4, 37 °C), 6.3 µM; in test [3] (pH 8.4, 37 °C), 0.85 µM.

As to `CC(C)c1s/c(=N\S(=O)(=O)c2cccc([N+](=O)[O-])c2)n(C)c1C(N)=O` [5-Isopropyl-3-methyl-2-{[(3-nitrophenyl)sulfonyl]imino}-2,3-dihydro-1,3-thiazole-4-carboxamide], the half-maximal inhibitory concentration (IC50) in test [1] was greater than 25 µM; in test [2] it was greater than 50 µM; in test [3], 39 µM.

As for `CC(=O)c1sc(=NS(=O)(=O)c2cccc([N+](=O)[O-])c2)n(C)c1C` [N-[(2Z)-5-acetyl-3,4-dimethyl-2,3-dihydro-1,3-thiazol-2-ylidene]-3-nitrobenzene-1-sulfonamide], the IC50 in test [1], in test [2] and in test [3] was greater than 50 µM throughout.

In the case of `Cc1[nH]/c(=N/S(=O)(=O)c2cccc([N+](=O)[O-])c2)sc1C(C)(C)C` [N-(5-tert-Butyl-4-methyl-1,3-thiazol-2-yl)-3-nitrobenzenesulfonamide], the IC50 in test [1] (pH 8.4, 37 °C) stood at 0.47 µM; in test [2] (pH 8.4, 37 °C), 32 µM; in test [3] (pH 8.4, 37 °C) it was 0.37 µM.
